Experiments:
ACHN-VHL shRNA cells = test: In vitro growth (cell counts), VHL knockdown cells; type: cell-based, human
Method: (§1) FIGS. 1A-1E. Effects of VHL knockdown on sensitivity to CCI-779. (a) Immunoblotting of lysates derived from shRNA and control (empty vector, V) in SN12C, using antibodies against VHL (both isoforms detected), HIF-1α, HIF-2α, GLUT-1, CA-IX and β-Actin (as a loading control). (b) SN12C-CSCG and SN12C-VHLshRNA cells (1×10^5) were cultured in 10% serum rich media, in the presence of vehicle, 1 or 10 nM of CCI-779 for 5 days. Cell growth was measured by cell counts (n=3). […] (c) SN12C-CSCG (C1) and SN12C-CSCG shVHL RNA (C2) cells were injected into SCID mice at a dose of 1×10^6 cells per mouse (n=30). When tumor volume reached 150 mm^3, mice were randomized to daily treatment with vehicle or 0.1 mg/kg of CCI-779. The change in tumor volume is plotted. Phosphorylated-S6 protein in SN12C-CSCG and SN12C-VHL shRNA xenograft tumors treated with vehicle or 0.1 mg/kg of CCI-779 was measured by immunoblot C3 and C4). Equal loading verified by actin immunoblots. […] (e) Schematic of shRNA-expressing lentivirus directed against VHL in pCSCG vector.
(§2) For in vitro experiments, cells (5×10^4) were plated and treated with 1 and 10 nM CCI-779 (kind gift of J. Gibbons, Wyeth) or vehicle (ethanol). On day 5-post treatment, cells were trypsinized, resuspended in DMEM with 10% FBS and counted using the VI CELL counter (Beckman Coulter), according to the manufacturer's instructions. Cell counts were done in triplicate and repeated on at least 3 independent occasions. In vivo tumorigenicity was measured by injection of 5×10^5 SN12C-CSCG, ACHN-CSCG, SN12C-CSCG-VHLshRNAi, ACHN-CSCG-VHLshRNAi, SN12C-CSCG-VHLshRNAi-pBABE, SN12C-CSCG-VHLshRNAi-pBABE-HA-HIF-2α (P405A; P531A) cells in 100 μl of Matrigel (Collaborative Biomedical) subcutaneously into the flanks of SCID mice. Tumor size were measured weekly in three dimensions using calipers as described (Klein, K. A. et al. Nat Med 3, 402-8 (1997)). When tumors reached 200 mm^3, all tumors received 0.1 mg/kg/daily of CCI-779 or vehicle. All mouse experiments were performed in compliance with the guidelines of the Animal Research Committee of the University of California at Los Angeles.
(§3) SN12C and ACHN (NCI60, DTP) were maintained in Dulbecco's modified Eagle's Medium (DMEM) supplemented with 10% FBS. […] On day 5-post treatment, cells were trypsinized, resuspended in DMEM with 10% FBS and counted using the VI-Cell XR automated cell viability analyzer (Beckmann Coulter). […] In vivo tumorigenicity was measured by injection of 5×10^5 SN12C-CSCG, ACHN-CSCG, SN12C-CSCG-VHL shRNA, ACHN-CSCG-VHL shRNA, SN12C-CSCG-VHL shRNA-pBABE, SN12C-CSCG-VHL shRNA-pBABE-HA-HIF-2α (P405A; P531A) cells in 100 μl of Matrigel (Collaborative Biomedical) subcutaneously into the flanks of SCID mice. Tumor size were measured weekly in three dimensions using calipers as described. […]

SN12C-VHL shRNA cells = test: In vitro growth (cell counts), VHL knockdown cells; type: cell-based, human
Method: as §1, §2, §3

[1] = dose-dependent, 1 and 10 nM CCI-779, day 5

With `CO[C@H]1C[C@@H]2CC[C@@H](C)[C@@](O)(O2)C(=O)C(=O)N2CCCC[C@H]2C(=O)O[C@H]([C@H](C)C[C@@H]2CC[C@@H](OC(=O)C(C)(CO)CO)[C@H](OC)C2)CC(=O)[C@H](C)/C=C(\C)[C@@H](O)[C@@H](OC)C(=O)[C@H](C)C[C@H](C)/C=C/C=C/C=C/1C` [CCI-779] the “sensitivity to CCI-779 after stable VHL knockdown” value (ACHN-VHL shRNA cells; FIG. 1D) was “enhanced sensitivity”, the “reduction of cell growth” value (ACHN-VHL shRNA cells; [1]) was 70% and the “sensitivity to CCI-779 in contrast to the parental cells” value (SN12C-VHL shRNA cells; 1 and 10 nM, in vitro) was “increased sensitivity”. For the same molecule, the “reduction of cell growth” value (SN12C-VHL shRNA cells; [1]) was 70%.

— patent publication US9261498B2, “Biomarker for sensitivity to mTOR inhibitor therapy in kidney cancer” (The Regents of the University of California, priority 2005, dated 2016)
